From ChEMBL document CHEMBL2311286, “Design and synthesis of alkoxyindolyl-3-acetic acid analogs as peroxisome proliferator-activated receptor-γ/δ agonists” (Bioorg Med Chem Lett, 2013)

Experiments:
[1] = molecular target: T1, Peroxisome proliferator-activated receptor delta (Mus musculus) (UniProt P35396); assay: Agonist activity at mouse PPARdelta assessed as maximum activation at 10 uM by in vitro functional transactivation assay relative to 0.1 uM GW0742
T1 sequence (whole entry): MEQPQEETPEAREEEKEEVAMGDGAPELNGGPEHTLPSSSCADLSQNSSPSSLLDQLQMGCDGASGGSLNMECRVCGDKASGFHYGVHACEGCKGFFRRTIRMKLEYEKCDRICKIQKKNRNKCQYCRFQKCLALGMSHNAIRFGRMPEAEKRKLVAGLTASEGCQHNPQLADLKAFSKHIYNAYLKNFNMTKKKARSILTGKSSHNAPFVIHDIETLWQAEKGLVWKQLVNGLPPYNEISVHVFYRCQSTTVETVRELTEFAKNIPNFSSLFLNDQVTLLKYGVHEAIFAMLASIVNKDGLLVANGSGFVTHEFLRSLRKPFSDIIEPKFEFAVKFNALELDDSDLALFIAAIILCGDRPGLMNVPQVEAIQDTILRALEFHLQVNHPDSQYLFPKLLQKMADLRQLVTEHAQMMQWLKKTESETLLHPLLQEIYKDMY

[2] = molecular target: T2, Peroxisome proliferator-activated receptor alpha (Mus musculus) (UniProt P23204); assay: Agonist activity at mouse PPARalpha assessed as maximum activation at 10 uM by in vitro functional transactivation assay relative to 1 uM GW0746
T2 sequence (whole entry): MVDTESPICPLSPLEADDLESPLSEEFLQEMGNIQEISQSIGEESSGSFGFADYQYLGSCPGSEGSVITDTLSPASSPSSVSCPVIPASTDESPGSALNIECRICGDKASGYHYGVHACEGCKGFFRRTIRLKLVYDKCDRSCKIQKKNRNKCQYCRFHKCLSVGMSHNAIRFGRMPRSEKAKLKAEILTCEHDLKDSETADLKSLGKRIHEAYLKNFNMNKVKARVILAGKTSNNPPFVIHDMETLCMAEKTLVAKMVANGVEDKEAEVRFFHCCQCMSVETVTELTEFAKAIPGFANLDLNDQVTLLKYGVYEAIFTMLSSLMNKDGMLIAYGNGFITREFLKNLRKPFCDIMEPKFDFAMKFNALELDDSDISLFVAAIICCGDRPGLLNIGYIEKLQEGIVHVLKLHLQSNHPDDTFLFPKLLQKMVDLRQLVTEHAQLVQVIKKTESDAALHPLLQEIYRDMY

[3] = molecular target: T3, Peroxisome proliferator-activated receptor gamma (Mus musculus) (UniProt P37238); assay: Agonist activity at mouse PPARgamma assessed as maximum activation at 10 uM by in vitro functional transactivation assay relative to 1 uM rosiglitazone
T3 sequence (whole entry): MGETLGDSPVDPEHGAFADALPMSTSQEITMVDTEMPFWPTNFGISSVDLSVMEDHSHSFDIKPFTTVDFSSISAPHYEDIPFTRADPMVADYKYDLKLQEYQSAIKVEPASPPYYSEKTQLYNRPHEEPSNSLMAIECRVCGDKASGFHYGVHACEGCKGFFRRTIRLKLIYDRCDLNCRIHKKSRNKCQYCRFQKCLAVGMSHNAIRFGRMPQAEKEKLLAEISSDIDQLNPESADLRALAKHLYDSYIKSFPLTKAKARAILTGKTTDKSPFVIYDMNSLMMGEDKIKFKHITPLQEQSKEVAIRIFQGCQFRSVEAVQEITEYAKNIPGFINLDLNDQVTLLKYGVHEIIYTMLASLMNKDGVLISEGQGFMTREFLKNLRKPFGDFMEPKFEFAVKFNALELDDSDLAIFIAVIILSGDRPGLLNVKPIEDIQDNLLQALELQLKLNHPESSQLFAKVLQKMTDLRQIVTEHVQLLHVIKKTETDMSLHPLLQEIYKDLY

%max [1] [%]	%max [2] [%]	%max [3] [%]	Compound
16	< 10	29.4	O=C(O)Cc1c[nH]c2ccc(OCCCN3c4ccccc4Oc4ccccc43)cc12
10.5	10.1	< 10	O=C(O)Cc1c[nH]c2ccc(OCCCn3c4ccccc4c4ccccc43)cc12
< 10	< 10	< 10	O=C(O)Cc1c[nH]c2cc(OCCCn3c4ccccc4c4ccccc43)ccc12
41.3	< 10	28.7	O=C(O)Cc1cn(Cc2ccccc2)c2ccc(OCCCn3c4ccccc4c4ccccc43)cc12
< 10	< 10	< 10	O=C(O)Cc1cn(Cc2ccccc2)c2cc(OCCCn3c4ccccc4c4ccccc43)ccc12

More lines, now with the values behind:

Compound	%max [1] [%]	%max [2] [%]	%max [3] [%]
O=C(O)Cc1c[nH]c2cc(OCCCN3c4ccccc4Oc4ccccc43)ccc12	< 10	< 10	< 10
O=C(O)Cc1cn(Cc2ccccc2)c2ccc(OCCCN3c4ccccc4Oc4ccccc43)cc12	21.7	12.8	43.1
O=C(O)Cc1cn(Cc2ccc(F)cc2)c2cc(OCCCN3c4ccccc4Oc4ccccc43)ccc12	36.6	< 10	23.8
O=C(O)Cc1cn(Cc2ccccc2)c2cc(OCCCN3c4ccccc4Oc4ccccc43)ccc12	27.3	< 10	< 10
